Measurements: patent US20230167088A1, “1-PYRAZINYLPYRAZOLYL-3-OXYALKYL ACIDS AND THEIR DERIVATIVES, AND THEIR USE FOR CONTROL OF UNDESIRED PLANT GROWTH” (BAYER AKTIENGESELLSCHAFT, priority 2020, published 2023)

Legend:
PHBPU = assay: Herbicidal post-emergence action 1a (greenhouse pots, visual rating); assay type: in vivo, Pharbitis purpurea; conditions: dosage 320 g/ha, visual rating about 3 weeks after treatment
Method: (§1) [table] a) Seeds of monocotyledonous and dicotyledonous weeds and crop plants are placed in sandy loam in plastic or organic plant pots, covered with soil and cultivated in a greenhouse under controlled growth conditions. 2 to 3 weeks after sowing, the test plants are treated at the one-leaf stage. The compounds of the invention, formulated in the form of wettable powders (WP) or as emulsion concentrates (EC), are then sprayed onto the green parts of the plants as aqueous suspension or emulsion with addition of 0.5% additive at a water application rate of 600 1/ha (converted). After the test plants have been kept in the greenhouse under optimum growth conditions for about 3 weeks, the activity of the preparations is rated visually in comparison to untreated controls. For example, 100% activity=the plants have died, 0% activity=like control plants. Tables A1 to A15 below show the effects of selected compounds of the general formula (I) according to Tables 1 and 2 on various harmful plants and an application rate corresponding to 320 g/ha and/or 80 g/ha, which were obtained by the experimental procedure mentioned above.

STEME [1] = assay: Herbicidal pre-emergence action 2b (doubly sown, 1280 g/ha); assay type: in vivo, Stellaria media; conditions: doubly sown pots, dosage 1280 g/ha, visual scoring after about 3 weeks
From the text: (§2) [table] b) Seeds of mono- and dicotyledonous weed plants are placed in plastic pots in sandy loam soil (doubly sown with one species each of mono- or dicotyledonous weed plants per pot) and covered with soil. The compounds of the invention, formulated in the form of wettable powders (WP) or as emulsion concentrates (EC), are then applied onto the surface of the covering soil as aqueous suspension or emulsion with addition of 0.5% additive at a water application rate equivalent to 600 litres per hectare. After the treatment, the pots are placed in a greenhouse and kept under good growth conditions for the trial plants. After about 3 weeks, the effect of the preparations is scored visually in comparison with untreated controls as percentages. For example, 100% activity=the plants have died, 0% activity=like control plants. Tables B16 to B21 below show the effects of selected compounds of the general formula (I) according to Tables 1 and 2 on various harmful plants and at an application rate corresponding to 1280 g/ha, which were obtained by the experimental procedure mentioned above.

VERPE [2] = assay: Herbicidal post-emergence action 1a (greenhouse pots, visual rating); assay type: in vivo, Veronica persica; conditions: dosage 320 g/ha, visual rating about 3 weeks after treatment
Method: as §1

MATIN [3] = assay: Herbicidal pre-emergence action 2b (doubly sown, 1280 g/ha); assay type: in vivo, Matricaria inodora; conditions: doubly sown pots, dosage 1280 g/ha, visual scoring after about 3 weeks
From the text: as §2

VERPE [4] = assay: Herbicidal pre-emergence action 2a (greenhouse pots, visual scoring); assay type: in vivo, Veronica persica; conditions: dosage 320 g/ha, visual scoring after about 3 weeks vs untreated controls
From the text: (§3) [table] a) Seeds of monocotyledonous and dicotyledonous weed plants and crop plants are placed in plastic or organic plant pots and covered with soil. The compounds of the invention, formulated in the form of wettable powders (WP) or as emulsion concentrates (EC), are then applied onto the surface of the covering soil as aqueous suspension or emulsion with addition of 0.5% additive at a water application rate of 600 1/ha (converted). After the treatment, the pots are placed in a greenhouse and kept under good growth conditions for the trial plants. After about 3 weeks, the effect of the preparations is scored visually in comparison with untreated controls as percentages. For example, 100% activity=the plants have died, 0% activity=like control plants. Tables B1 to B15 below show the effects of selected compounds of the general formula (I) according to Tables 1 and 2 on various harmful plants and an application rate corresponding to 320 g/ha and/or 80 g/ha, which were obtained by the experimental procedure mentioned above.

SETVI = assay: as above; assay type: in vivo, Setaria viridis; conditions: dosage 320 g/ha, visual scoring after about 3 weeks vs untreated controls
From the text: as §3

ECHCG = assay: Herbicidal pre-emergence action 2b (doubly sown, 1280 g/ha); assay type: in vivo, Echinochloa crus-galli; conditions: doubly sown pots, dosage 1280 g/ha, visual scoring after about 3 weeks
From the text: as §2

AMARE [5] = assay: as above; assay type: in vivo, Amaranthus retroflexus; conditions: doubly sown pots, dosage 1280 g/ha, visual scoring after about 3 weeks
From the text: as §2

DIGSA [6] = assay: Herbicidal pre-emergence action 2a (greenhouse pots, visual scoring); assay type: in vivo, Digitaria sanguinalis; conditions: dosage 320 g/ha, visual scoring after about 3 weeks
From the text: as §3

POAAN [7] = assay: Herbicidal pre-emergence action 2b (doubly sown, 1280 g/ha); assay type: in vivo, Poa annua; conditions: doubly sown pots, dosage 1280 g/ha, visual scoring after about 3 weeks
From the text: as §2

LOLRI [8] = assay: Herbicidal pre-emergence action 2a (greenhouse pots, visual scoring); assay type: in vivo, Lolium rigidum; conditions: dosage 320 g/ha, visual scoring after about 3 weeks vs untreated controls
Method in brief: (§4)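 Pots of covered seed were sprayed pre-emergence at 320 and/or 80 g/ha. Roughly three weeks of greenhouse growth preceded visual scoring in percent versus untreated controls.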

VIOTR [9] = assay: as above; assay type: in vivo, Viola tricolor; conditions: dosage 320 g/ha, visual scoring after about 3 weeks vs untreated controls
From the text: as §3

MATIN [10] = assay: Herbicidal post-emergence action 1b (twin sowing, 1280 g/ha); assay type: in vivo, Matricaria inodora; conditions: dosage 1280 g/ha, visual rating about 3 weeks after treatment
Method: (§5) [table] b) Seeds of mono- and dicotyledonous weed plants are placed in plastic pots in sandy loam soil (twin sowing with one species each of mono- or dicotyledonous weed plants per pot), covered with soil and cultivated in a greenhouse under controlled growth conditions. 2 to 3 weeks after sowing, the test plants are treated at the one-leaf stage. The compounds of the invention, formulated in the form of wettable powders (WP) or as emulsion concentrates (EC), are applied to the green parts of the plants as aqueous suspension or emulsion with addition of 0.5% additive at a water application rate equivalent to 600 litres per hectare. After the test plants have been kept in the greenhouse under optimum growth conditions for about 3 weeks, the activity of the preparations is rated visually in comparison to untreated controls. For example, 100% activity=the plants have died, 0% activity=like control plants. Tables A16 to A21 below show the effects of selected compounds of the general formula (I) according to Tables 1 and 2 on various harmful plants and at an application rate corresponding to 1280 g/ha, which were obtained by the experimental procedure mentioned above.

POAAN [11] = assay: as above; assay type: in vivo, Poa annua; conditions: dosage 1280 g/ha, visual rating about 3 weeks after treatment
Method: as §5

STEME [12] = assay: as above; assay type: in vivo, Stellaria media; conditions: dosage 1280 g/ha, visual rating about 3 weeks after treatment
Method: as §5

VIOTR [13] = assay: Herbicidal post-emergence action 1a (greenhouse pots, visual rating); assay type: in vivo, Viola tricolor; conditions: visual rating about 3 weeks after treatment
Method: as §1

AMARE [14] = assay: Herbicidal pre-emergence action 2a (greenhouse pots, visual scoring); assay type: in vivo, Amaranthus retroflexus; conditions: dosage 320 g/ha, visual scoring after about 3 weeks vs untreated controls
Method in brief: as §4

LOLRI [15] = assay: Herbicidal post-emergence action 1a (greenhouse pots, visual rating); assay type: in vivo, Lolium rigidum; conditions: Dosage 320 g/ha; rated visually about 3 weeks after treatment; 100% = plants have died, 0% = like control plants
Method: as §1

MATIN [16] = assay: Herbicidal pre-emergence action 2a (greenhouse pots, visual scoring); assay type: in vivo, Matricaria inodora; conditions: dosage 320 g/ha, visual scoring after about 3 weeks vs untreated controls
From the text: as §3

ALOMY [17] = assay: as above; assay type: in vivo, Alopecurus myosuroides; conditions: dosage 320 g/ha, visual scoring after about 3 weeks
Method in brief: as §4

ALOMY [18] = assay: Herbicidal post-emergence action 1a (greenhouse pots, visual rating); assay type: in vivo, Alopecurus myosuroides; conditions: Dosage 320 g/ha; rated visually about 3 weeks after treatment; 100% = plants have died, 0% = like control plants
Method: as §1

AVEFA = assay: as above; assay type: in vivo, Avena fatua; conditions: Dosage 320 g/ha; rated visually about 3 weeks after treatment; 100% = plants have died, 0% = like control plants
Method: as §1

AMARE [19] = assay: as above; assay type: in vivo, Amaranthus retroflexus; conditions: visual rating about 3 weeks after treatment
Method: as §1

DIGSA [20] = assay: Herbicidal pre-emergence action 2b (doubly sown, 1280 g/ha); assay type: in vivo, Digitaria sanguinalis; conditions: doubly sown pots, dosage 1280 g/ha, visual scoring after about 3 weeks
From the text: as §2

For `COC(=O)[C@H](C)Oc1nn(-c2cnccn2)c(-c2cccc(F)c2)c1Br` [Example I-21], the “Post-emergence action against PHBPU in %” value (PHBPU) was 80%, the “Pre-emergence action at 1280 g/ha against STEME in %” value (STEME [1]) was 100% and the “Post-emergence action against VERPE in %” value (VERPE [2]) was 80%. For the same compound, the “Pre-emergence action at 1280 g/ha against MATIN in %” value (MATIN [3]) was 100%, the “Pre-emergence action against VERPE in %” value (VERPE [4]) was 90% and the “Pre-emergence action against SETVI in %” value (SETVI) was 90%. The “Pre-emergence action at 1280 g/ha against ECHCG in %” value (ECHCG) was 100%, the “Pre-emergence action at 1280 g/ha against AMARE in %” value (AMARE [5]) was 100% and the “Pre-emergence action against DIGSA in %” value (DIGSA [6]) was 90%. The “Pre-emergence action at 1280 g/ha against POAAN in %” value (POAAN [7]) was 100%, the “Pre-emergence action against LOLRI in %” value (LOLRI [8]) was 90% and the “Pre-emergence action against VIOTR in %” value (VIOTR [9]) was 100%. The “Post-emergence action at 1280 g/ha against MATIN in %” value (MATIN [10]) was 90%, the “Post-emergence action at 1280 g/ha against POAAN in %” value (POAAN [11]) was 100% and the “Post-emergence action at 1280 g/ha against STEME in %” value (STEME [12]) was 100%. For the same compound, the “Post-emergence action against VIOTR in %” value (VIOTR [13]; dosage 80 g/ha) was 80%, the “Post-emergence action against VIOTR in %” value (VIOTR [13]; dosage 320 g/ha) was 90% and the “Pre-emergence action against AMARE in %” value (AMARE [14]) was 100%. The “Post-emergence action against LOLRI in %” value (LOLRI [15]) was 90%, the “Pre-emergence action against MATIN in %” value (MATIN [16]) was 80% and the “Pre-emergence action against ALOMY in %” value (ALOMY [17]) was 80%. For the same compound, the “Post-emergence action against ALOMY in %” value (ALOMY [18]) was 90%, the “Post-emergence action against AVEFA in %” value (AVEFA) was 80% and the “Post-emergence action against AMARE in %” value (AMARE [19]; dosage 80 g/ha) was 80%. For the same compound, the “Post-emergence action against AMARE in %” value (AMARE [19]; dosage 320 g/ha) was 90%.

For `COC(=O)[C@@H](C)Oc1nn(-c2cnccn2)c(-c2ccc(F)nc2)c1C#N` [Example I-25], the “Pre-emergence action at 1280 g/ha against MATIN in %” value (MATIN [3]) was 90%, the “Pre-emergence action against VERPE in %” value (VERPE [4]) was 90% and the “Pre-emergence action at 1280 g/ha against ECHCG in %” value (ECHCG) was 90%. The “Pre-emergence action at 1280 g/ha against AMARE in %” value (AMARE [5]) was 100%, the “Pre-emergence action at 1280 g/ha against POAAN in %” value (POAAN [7]) was 100% and the “Pre-emergence action at 1280 g/ha against DIGSA in %” value (DIGSA [20]) was 100%. The “Pre-emergence action against VIOTR in %” value (VIOTR [9]) was 90%, the “Post-emergence action at 1280 g/ha against POAAN in %” value (POAAN [11]) was 90% and the “Post-emergence action at 1280 g/ha against STEME in %” value (STEME [12]) was 90%. For the same compound, the “Post-emergence action against VIOTR in %” value (VIOTR [13]; dosage 320 g/ha) was 90%, the “Pre-emergence action against ALOMY in %” value (ALOMY [17]) was 80% and the “Post-emergence action against ALOMY in %” value (ALOMY [18]) was 80%. For the same compound, the “Post-emergence action against AMARE in %” value (AMARE [19]; dosage 320 g/ha) was 80%.
